The text below walks through data of patent US9630977B2, “Cephalosporin derivatives and pharmaceutical compositions thereof” (Legochem Biosciences, Inc., priority 2011, dated 2017).

Common to all, as to test: In vitro antibacterial activity test (broth microdilution)
Holding throughout (format): cell-based

One assay deals with P. aeruginosa 40. The conditions noted are these: Pseudomonas aeruginosa, 40. In short, it runs like this: (§1)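 MIC90 was determined by CLSI broth microdilution against clinical isolates, as the lowest concentration inhibiting visible growth of 90% of organisms relative to untreated control. Final compound concentrations spanned 0.0626–128 ug/mL with 2.5% (V/V) DMSO.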
Another assay relates to P. aeruginosa 43. To be noted: Pseudomonas aeruginosa, 43. The gist of the method:
as §1

In the next assay the test system is A. baumannii 49. To be noted: Acinetobacter baumannii, 49, A. baumannii 49. The gist of the method: as §1
In the next assay the test system is E. coli AG100. To be noted: Escherichia coli, AG100. The gist of the method: as §1
The next assay concerns K. pneumoniae β9. To be noted: Klebsiella pneumoniae. The gist of the method:
as §1

A further assay concerns P. aeruginosa 1912E. The conditions noted are these: Pseudomonas aeruginosa, 1912E. In short, it runs like this:
as §1

A further assay concerns K. pneumoniae β11. The conditions noted are these: Klebsiella pneumoniae. In short, it runs like this:
as §1

For another assay, the system named is K. pneumoniae β14. To be noted: Klebsiella pneumoniae. The gist of the method:
as §1

A further assay deals with A. baumannii 46. The conditions noted are these: Acinetobacter baumannii, 46, A. baumannii 46. The gist of the method: as §1
The test system of another assay is A. baumannii 52. The conditions noted are these: Acinetobacter baumannii, 52. In short, it runs like this: as §1
The subject of the next assay is K. pneumoniae β10. The conditions noted are these: Klebsiella pneumoniae. The gist of the method: as §1
In assay [1] the test system is A. calcoaceticus ATCC15473. The conditions noted are these: Acinetobacter calcoaceticus, ATCC15473, A. calcoaceticus ATCC15473. The gist of the method: as §1
The next assay relates to E. coli β4. The conditions noted are these: Escherichia coli. In short, it runs like this: as §1
The test system of another assay is E. cloacae β19. The conditions noted are these: Enterobacter cloacae. The gist of the method: as §1
A further assay deals with P. aeruginosa 37. The conditions noted are these: Pseudomonas aeruginosa, 37, P. aeruginosa 37. The gist of the method: as §1
A further assay relates to M. catarrhalis 2524. To be noted: Moraxella catarrhalis, 2524. In short, it runs like this: as §1
The subject of the next assay is P. aeruginosa 6065Y. To be noted: Pseudomonas aeruginosa, 6065Y. The gist of the method:
as §1

In another assay the test system is K. pneumoniae 2011E. The conditions noted are these: Klebsiella pneumoniae, 2011E. In short, it runs like this:
as §1

For a further assay, the system named is K. pneumoniae β13. To be noted: Klebsiella pneumoniae. The gist of the method: as §1

Converted amounts (≈) assume the structure as drawn.

One may read the MIC90 as an inhibitory concentration at the 90% level, which refers to growth in some studies and to a panel of isolates in others. For the compound `CC(C)(O/N=C(\C(=O)N[C@@H]1C(=O)N2C(C(=O)[O-])=C(/C=C/C[n+]3cnc(N)c(NCCN)c3)CSC12)c1nsc(N)n1)C(=O)O` (some centres unmarked) [Compound 55], the MIC90 with P. aeruginosa 40 was 1 µg/mL (≈ 1.54 µM); in the assay on P. aeruginosa 43, more than 128 µg/mL; against A. baumannii 49, 64 µg/mL (≈ 98.8 µM); in the assay with E. coli AG100, less than 0.0625 µg/mL; in the assay with K. pneumoniae β9, 2 µg/mL (≈ 3.09 µM); against P. aeruginosa 1912E, 1 µg/mL (≈ 1.54 µM). Besides, the MIC90 is 128 µg/mL (≈ 198 µM) against K. pneumoniae β11; 0.5 µg/mL (≈ 0.772 µM) against K. pneumoniae β14; 0.5 µg/mL (≈ 0.772 µM) in the assay with A. baumannii 46; 64 µg/mL (≈ 98.8 µM) against A. baumannii 52; 0.125 µg/mL (≈ 0.193 µM) against K. pneumoniae β10; 0.125 µg/mL (≈ 0.193 µM) in assay [1]. In addition, the MIC90 in the assay on E. coli β4 is less than 0.0625 µg/mL; with E. cloacae β19, 8 µg/mL (≈ 12.4 µM); in the assay with P. aeruginosa 37, 4 µg/mL (≈ 6.18 µM); with M. catarrhalis 2524, less than 0.0625 µg/mL; against P. aeruginosa 6065Y, 8 µg/mL (≈ 12.4 µM); against K. pneumoniae 2011E it was less than 0.0625 µg/mL. The MIC90 with K. pneumoniae β13 came to 0.25 µg/mL (≈ 0.386 µM).

`CC(C)(O/N=C(\C(=O)N[C@@H]1C(=O)N2C(C(=O)[O-])=C(/C=C/C[n+]3cnc(N)c(NCCCN)c3)CSC12)c1nsc(N)n1)C(=O)O` (some centres unmarked) [Compound 56]: the MIC90 with P. aeruginosa 40 was found to be 8 µg/mL (≈ 12.1 µM); against P. aeruginosa 43, 64 µg/mL (≈ 96.7 µM); against A. baumannii 49, 32 µg/mL (≈ 48.4 µM); against E. coli AG100, 0.5 µg/mL (≈ 0.756 µM); in the assay with K. pneumoniae β9, 1 µg/mL (≈ 1.51 µM); against P. aeruginosa 1912E it was 2 µg/mL (≈ 3.02 µM). In addition, the MIC90 against K. pneumoniae β11 was 2 µg/mL (≈ 3.02 µM); against K. pneumoniae β14 it was 2 µg/mL (≈ 3.02 µM); against A. baumannii 46, 4 µg/mL (≈ 6.04 µM); against A. baumannii 52, 16 µg/mL (≈ 24.2 µM); against K. pneumoniae β10 it was 1 µg/mL (≈ 1.51 µM); in [1], 1 µg/mL (≈ 1.51 µM). Besides, the MIC90 in the assay with E. coli β4 is 1 µg/mL (≈ 1.51 µM); in the assay with E. cloacae β19 it was 4 µg/mL (≈ 6.04 µM); with P. aeruginosa 37, 8 µg/mL (≈ 12.1 µM); with M. catarrhalis 2524 it was less than 0.0625 µg/mL; in the assay with P. aeruginosa 6065Y, 16 µg/mL (≈ 24.2 µM); in the assay with K. pneumoniae 2011E, 2 µg/mL (≈ 3.02 µM). In the assay with K. pneumoniae β13, this compound gave an MIC90 of 1 µg/mL (≈ 1.51 µM).

For `CC(C)(O/N=C(\C(=O)N[C@@H]1C(=O)N2C(C(=O)[O-])=C(/C=C/C[n+]3cnc(N)c(NCCCN)c3)CSC12)c1nc(N)sc1Cl)C(=O)O` (some centres unmarked) [Compound 57], the MIC90 against P. aeruginosa 40 is 4 µg/mL (≈ 5.75 µM); with P. aeruginosa 43, more than 128 µg/mL; against A. baumannii 49, 64 µg/mL (≈ 92.1 µM); against E. coli AG100, 0.125 µg/mL (≈ 0.18 µM); with K. pneumoniae β9, 1 µg/mL (≈ 1.44 µM); against P. aeruginosa 1912E it was 0.5 µg/mL (≈ 0.719 µM). Also, the MIC90 was 128 µg/mL (≈ 184 µM) with K. pneumoniae β11; 1 µg/mL (≈ 1.44 µM) in the assay on K. pneumoniae β14; 1 µg/mL (≈ 1.44 µM) against A. baumannii 46; 64 µg/mL (≈ 92.1 µM) in the assay with A. baumannii 52; 0.25 µg/mL (≈ 0.36 µM) with K. pneumoniae β10; 0.5 µg/mL (≈ 0.719 µM) in [1]. The MIC90 is 0.125 µg/mL (≈ 0.18 µM) against E. coli β4; 8 µg/mL (≈ 11.5 µM) with E. cloacae β19; 8 µg/mL (≈ 11.5 µM) with P. aeruginosa 37; less than 0.0625 µg/mL in the assay on M. catarrhalis 2524; 16 µg/mL (≈ 23 µM) against P. aeruginosa 6065Y; 0.25 µg/mL (≈ 0.36 µM) with K. pneumoniae 2011E. For the same compound, the MIC90 against K. pneumoniae β13 amounted to 0.5 µg/mL (≈ 0.719 µM).

For `CC(C)(O/N=C(\C(=O)N[C@@H]1C(=O)N2C(C(=O)[O-])=C(/C=C/C[n+]3cnc(N)c(NCCCCN)c3)CSC12)c1nc(N)sc1Cl)C(=O)O` (some centres unmarked) [Compound 58], the MIC90 was 16 µg/mL (≈ 22.6 µM) against P. aeruginosa 40; more than 128 µg/mL in the assay with P. aeruginosa 43; 32 µg/mL (≈ 45.1 µM) in the assay on A. baumannii 49; 0.5 µg/mL (≈ 0.705 µM) in the assay with E. coli AG100; 8 µg/mL (≈ 11.3 µM) with K. pneumoniae β9; 8 µg/mL (≈ 11.3 µM) against P. aeruginosa 1912E. Besides, the MIC90 is 8 µg/mL (≈ 11.3 µM) against K. pneumoniae β11; 4 µg/mL (≈ 5.64 µM) in the assay with K. pneumoniae β14; 32 µg/mL (≈ 45.1 µM) in the assay with A. baumannii 46; 64 µg/mL (≈ 90.2 µM) in the assay on A. baumannii 52; 2 µg/mL (≈ 2.82 µM) in the assay on K. pneumoniae β10; 4 µg/mL (≈ 5.64 µM) in [1]. The MIC90 was 2 µg/mL (≈ 2.82 µM) with E. coli β4; 8 µg/mL (≈ 11.3 µM) against E. cloacae β19; 32 µg/mL (≈ 45.1 µM) against P. aeruginosa 37; less than 0.0625 µg/mL against M. catarrhalis 2524; 32 µg/mL (≈ 45.1 µM) in the assay on P. aeruginosa 6065Y; 2 µg/mL (≈ 2.82 µM) with K. pneumoniae 2011E. The compound further yielded an MIC90 against K. pneumoniae β13 of 4 µg/mL (≈ 5.64 µM).

On to `CC(C)(O/N=C(\C(=O)N[C@@H]1C(=O)N2C(C(=O)[O-])=C(/C=C/C[n+]3cnc(N)c(NC(=O)CCN)c3)CSC12)c1csc(N)n1)C(=O)O` (some centres unmarked) [Compound 60], for which the MIC90 in the assay with P. aeruginosa 40 is 8 µg/mL (≈ 11.9 µM); with P. aeruginosa 43, 64 µg/mL (≈ 94.9 µM); against A. baumannii 49, more than 128 µg/mL; in the assay on E. coli AG100 it was 0.125 µg/mL (≈ 0.185 µM); against K. pneumoniae β9, 1 µg/mL (≈ 1.48 µM); in the assay with P. aeruginosa 1912E, 2 µg/mL (≈ 2.96 µM). In addition, the MIC90 with K. pneumoniae β11 is 64 µg/mL (≈ 94.9 µM); against K. pneumoniae β14 it was 0.5 µg/mL (≈ 0.741 µM); against A. baumannii 46 it was 8 µg/mL (≈ 11.9 µM); in the assay with A. baumannii 52, 128 µg/mL (≈ 190 µM); against K. pneumoniae β10, 0.5 µg/mL (≈ 0.741 µM); in assay [1], 1 µg/mL (≈ 1.48 µM). The MIC90 in the assay with E. coli β4 was 0.25 µg/mL (≈ 0.371 µM); in the assay with E. cloacae β19, 0.5 µg/mL (≈ 0.741 µM); against P. aeruginosa 37, 32 µg/mL (≈ 47.4 µM); in the assay on M. catarrhalis 2524, less than 0.0625 µg/mL; in the assay with P. aeruginosa 6065Y it was 16 µg/mL (≈ 23.7 µM); with K. pneumoniae 2011E, 0.25 µg/mL (≈ 0.371 µM). In the assay with K. pneumoniae β13, this compound gave an MIC90 of 0.5 µg/mL (≈ 0.741 µM).
